Experimental data published in US20260337208A1, “HETEROCYCLIC DERIVATIVES AS JANUS KINASE INHIBITORS” (CHIESI FARMACEUTICI S.P.A., priority 2022, published 2026).
pIC50: −log10 of the molar value.

How the values were obtained:
[1] = biological target: JAK1 (Homo sapiens, UniProt P23458); experiment: Biochemical potency on JAK1, TR-FRET (LANCE Ultra kinase assay); settings: ATP corresponding to Km; cell-free; read-out: JAK1 inhibitory activity (pIC50) (converted)
Protocol: (§1) The objective of this study was to assess the capability of compounds to inhibit all 4 JAK isoforms activity in a cell-free environment. Assay for JAK 1, JAK 2, JAK 3 and TYK2 were performed by Time-resolved fluorescence resonance energy transfer (TR-FRET) technology. It consists in the interaction of two labelled binding partners detected by the energy transfer from an excited donor to an acceptor dye and measurement of light emission by the acceptor dye. LANCE Ultra kinase assay was used. In presence of JAK 1, JAK 2, JAK 3 and TYK2 kinases and ATP (corresponding to Km), the ULight peptide substrate (LANCE Ulight-JAK-1 (Tyr1023) Peptide, Perkin Elmer, TRF0121) is phosphorylated. It is then captured by Eu-anti-phospho-substrate antibody (LANCE Eu-W1024 Anti-phosphotyrosine (PT66), Perkin Elmer, AD0069), which bring the Eu-chelate donor and ULight acceptor dyes into close proximity. Upon excitation at 320 nm, the Eu-chelate transfers its energy to the ULight dye, resulting in a fluorescent light emission at 665 nm.
(§2) Serial dilutions of compounds in pure DMSO are prepared from 10 mM DMSO stock solutions. Compounds were tested in 384-well plate for 11 consecutive 5-fold dilutions starting from 20 μM highest concentration (20 μM-[…]). 200 nL of compound were transferred from mother plate to test plate by using Mosquito (TTP labtech). Assay was performed in 384-well Perkin Elmer test plate in 20 μL assay volume (kinase reaction) and 40 μL total volume (stopping reagent and antibody detection reagents). In 10 μL of substrate solution (peptide+ATP) 30/50/20/10 nM of peptide and 20/0.7/0.2/12 μM of ATP were added for JAK 1, JAK 2, JAK 3 and TYK2 respectively. 10 μL of enzyme solution was added to kinase reaction at these concentrations: 0.15/0.083/0.025/0.144 ng/μL of JAK 1, JAK 2, JAK 3 and TYK2 respectively. After shaking and 1.5 h of incubation at r.t., 20 μL of Stop (10 μL EDTA) and Detection mixture (10 μL Europium-anti-phospho antibody, final: 0.5 nM) were added. Reading was performed after 1 h of incubation on a En Vision 2104 reader (Perkin Elmer).
(§3) Calculation of IC50 data, curves and QC analysis was performed by using Excel tool and GraphPadPrism software, v9. Briefly, individual concentration-effect curves are generated by plotting the logarithm of the tested concentration of tested compounds (X) vs. corresponding percent inhibition values (Y) using least squares (ordinary) fit. Best fit IC50 values are calculated using Log (inhibitor) vs. normalized response—Variable slope equation, where Y=100/(1+10^((LogIC50−X)*HillSlope)). QC criteria parameters (Z′, S:B, R2, HillSlope) were checked for every IC50 curve. Calculation of IC50 data, curves and QC analysis were made using Excel tools and GraphPadPrism software. QC criteria parameters: Z′≥0.5, Hill Slope range 0.5 to 5, S:B>2.

[2] = biological target: JAK2 (Homo sapiens, UniProt O60674); experiment: Biochemical potency on JAK2, TR-FRET (LANCE Ultra kinase assay); settings: ATP corresponding to Km; cell-free; read-out: JAK2 inhibitory activity (pIC50) (converted)
Sequence of JAK2 (O60674 whole entry): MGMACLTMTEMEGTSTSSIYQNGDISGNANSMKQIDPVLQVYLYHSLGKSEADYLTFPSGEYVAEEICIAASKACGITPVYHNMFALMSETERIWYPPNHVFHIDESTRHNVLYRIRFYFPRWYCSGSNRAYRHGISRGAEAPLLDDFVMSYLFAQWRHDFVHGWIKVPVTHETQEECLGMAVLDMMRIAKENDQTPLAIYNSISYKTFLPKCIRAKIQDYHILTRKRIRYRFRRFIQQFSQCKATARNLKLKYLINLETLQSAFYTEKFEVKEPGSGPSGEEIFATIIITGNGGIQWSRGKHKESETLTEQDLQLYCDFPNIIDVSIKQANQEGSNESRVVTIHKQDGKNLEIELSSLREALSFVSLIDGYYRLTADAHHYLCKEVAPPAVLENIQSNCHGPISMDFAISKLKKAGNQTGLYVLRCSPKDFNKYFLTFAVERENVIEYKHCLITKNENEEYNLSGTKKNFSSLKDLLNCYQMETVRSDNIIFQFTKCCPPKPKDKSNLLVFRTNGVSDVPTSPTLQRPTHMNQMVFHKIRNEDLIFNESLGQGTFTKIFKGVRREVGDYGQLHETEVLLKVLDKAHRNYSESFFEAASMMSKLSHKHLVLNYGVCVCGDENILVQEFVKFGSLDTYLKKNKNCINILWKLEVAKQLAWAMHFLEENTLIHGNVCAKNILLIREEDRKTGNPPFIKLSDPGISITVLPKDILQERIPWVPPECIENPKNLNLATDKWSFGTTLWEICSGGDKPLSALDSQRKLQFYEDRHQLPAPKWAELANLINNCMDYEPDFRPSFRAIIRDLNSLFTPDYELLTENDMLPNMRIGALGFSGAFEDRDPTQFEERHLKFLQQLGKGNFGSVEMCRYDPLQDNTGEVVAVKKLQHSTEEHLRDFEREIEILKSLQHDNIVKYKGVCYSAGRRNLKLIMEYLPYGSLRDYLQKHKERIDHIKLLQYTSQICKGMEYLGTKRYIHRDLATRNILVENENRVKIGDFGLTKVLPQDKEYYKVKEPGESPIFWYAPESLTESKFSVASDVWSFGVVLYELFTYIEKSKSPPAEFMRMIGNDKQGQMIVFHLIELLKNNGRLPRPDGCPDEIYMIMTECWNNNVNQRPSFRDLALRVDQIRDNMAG
Protocol: as §1, §2, §3

[3] = biological target: T1, JAK3 (Homo sapiens, UniProt P52333); experiment: Biochemical potency on JAK3, TR-FRET (LANCE Ultra kinase assay); settings: ATP corresponding to Km; cell-free; read-out: JAK3 inhibitory activity (pIC50) (converted)
T1 sequence (P52333 1-1124): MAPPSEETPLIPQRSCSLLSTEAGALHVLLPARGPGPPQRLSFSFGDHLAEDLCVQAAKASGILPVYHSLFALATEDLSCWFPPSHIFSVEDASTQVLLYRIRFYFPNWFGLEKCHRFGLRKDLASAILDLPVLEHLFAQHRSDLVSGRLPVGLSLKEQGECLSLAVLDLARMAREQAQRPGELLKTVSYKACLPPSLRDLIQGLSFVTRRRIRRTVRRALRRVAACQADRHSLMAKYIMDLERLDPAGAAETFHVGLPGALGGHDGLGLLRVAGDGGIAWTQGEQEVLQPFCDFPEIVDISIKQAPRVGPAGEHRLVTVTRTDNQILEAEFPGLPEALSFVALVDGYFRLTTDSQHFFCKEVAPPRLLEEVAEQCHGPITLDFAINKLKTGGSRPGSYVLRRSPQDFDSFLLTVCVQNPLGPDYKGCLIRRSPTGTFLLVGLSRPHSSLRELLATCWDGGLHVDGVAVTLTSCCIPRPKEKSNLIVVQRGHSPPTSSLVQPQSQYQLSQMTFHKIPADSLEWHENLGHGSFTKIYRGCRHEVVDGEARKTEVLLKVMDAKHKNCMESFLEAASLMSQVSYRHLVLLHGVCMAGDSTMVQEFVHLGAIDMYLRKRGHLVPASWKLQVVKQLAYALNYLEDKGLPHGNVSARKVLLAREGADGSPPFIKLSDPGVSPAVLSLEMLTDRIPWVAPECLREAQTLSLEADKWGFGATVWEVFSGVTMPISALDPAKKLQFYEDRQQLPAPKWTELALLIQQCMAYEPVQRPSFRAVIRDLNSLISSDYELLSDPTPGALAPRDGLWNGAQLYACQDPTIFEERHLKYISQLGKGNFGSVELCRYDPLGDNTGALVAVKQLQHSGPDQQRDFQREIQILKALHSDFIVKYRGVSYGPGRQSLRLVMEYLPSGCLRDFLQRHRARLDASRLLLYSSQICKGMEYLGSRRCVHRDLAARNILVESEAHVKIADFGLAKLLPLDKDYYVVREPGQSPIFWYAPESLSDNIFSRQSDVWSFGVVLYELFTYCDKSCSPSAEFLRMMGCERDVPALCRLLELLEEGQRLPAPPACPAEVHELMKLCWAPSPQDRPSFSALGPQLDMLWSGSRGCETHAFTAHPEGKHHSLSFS
Protocol: as §1, §2, §3

[4] = biological target: TYK2 (Homo sapiens, UniProt P29597); experiment: Biochemical potency on Tyk2, TR-FRET (LANCE Ultra kinase assay); settings: ATP corresponding to Km; cell-free; read-out: TYK2 inhibitory activity (pIC50) (converted)
Sequence of TYK2 (P29597 whole entry): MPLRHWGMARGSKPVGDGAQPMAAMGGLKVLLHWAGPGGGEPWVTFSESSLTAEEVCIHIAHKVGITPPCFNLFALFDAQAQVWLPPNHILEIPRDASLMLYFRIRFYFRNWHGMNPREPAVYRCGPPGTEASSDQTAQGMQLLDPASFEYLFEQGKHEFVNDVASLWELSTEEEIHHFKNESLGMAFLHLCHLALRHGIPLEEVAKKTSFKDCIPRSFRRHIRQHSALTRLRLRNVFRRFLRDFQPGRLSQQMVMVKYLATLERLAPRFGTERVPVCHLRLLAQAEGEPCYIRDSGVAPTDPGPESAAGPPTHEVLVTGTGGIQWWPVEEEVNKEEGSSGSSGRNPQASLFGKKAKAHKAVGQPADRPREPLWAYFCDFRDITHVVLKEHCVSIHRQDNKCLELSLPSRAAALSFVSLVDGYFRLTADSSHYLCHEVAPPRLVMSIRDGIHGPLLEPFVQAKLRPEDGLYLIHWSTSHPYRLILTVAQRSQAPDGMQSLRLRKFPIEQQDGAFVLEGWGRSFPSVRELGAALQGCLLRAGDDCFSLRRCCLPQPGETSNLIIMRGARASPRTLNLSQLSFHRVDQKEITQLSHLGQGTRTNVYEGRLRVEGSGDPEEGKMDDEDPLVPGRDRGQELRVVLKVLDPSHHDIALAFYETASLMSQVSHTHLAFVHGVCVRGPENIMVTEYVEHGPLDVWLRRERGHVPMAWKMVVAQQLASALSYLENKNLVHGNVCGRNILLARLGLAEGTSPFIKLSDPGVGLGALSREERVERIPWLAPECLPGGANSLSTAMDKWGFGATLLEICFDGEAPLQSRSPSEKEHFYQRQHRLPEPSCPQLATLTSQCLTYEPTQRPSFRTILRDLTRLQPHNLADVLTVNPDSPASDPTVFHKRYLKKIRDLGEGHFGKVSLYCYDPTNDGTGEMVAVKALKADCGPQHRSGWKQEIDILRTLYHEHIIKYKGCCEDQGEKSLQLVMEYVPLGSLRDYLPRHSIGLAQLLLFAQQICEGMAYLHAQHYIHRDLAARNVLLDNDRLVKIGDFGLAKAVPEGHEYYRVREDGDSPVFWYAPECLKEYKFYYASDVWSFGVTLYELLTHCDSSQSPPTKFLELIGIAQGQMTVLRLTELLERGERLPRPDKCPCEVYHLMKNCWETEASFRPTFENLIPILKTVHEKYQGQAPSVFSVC
Protocol: as §1, §2, §3

[5] = system: pSTAT6 in BEAS-2B human cell line; experiment: Inhibition of IL-13 induced pSTAT6 in BEAS; assay type: cell-based; settings: for pIC50: Homo sapiens, BEAS-2B, 0.5 h, IL-13 trigger, 30 min, parent compound; for Fold difference parent vs predicted acid metabolite: ratio=IC50 predicted acid metabolite/IC50 ester
Method in brief: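 BEAS-2B cells grown 48 h, pre-treated 30 min with compound, then stimulated 30 min with IL-13. Lysate pSTAT6 (Tyr641) measured by sandwich ELISA. Eleven 5-fold dilutions from 10 μM, in duplicate, fitted to IC50.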

Sequence of JAK1 (P23458 whole entry, canonical isoform): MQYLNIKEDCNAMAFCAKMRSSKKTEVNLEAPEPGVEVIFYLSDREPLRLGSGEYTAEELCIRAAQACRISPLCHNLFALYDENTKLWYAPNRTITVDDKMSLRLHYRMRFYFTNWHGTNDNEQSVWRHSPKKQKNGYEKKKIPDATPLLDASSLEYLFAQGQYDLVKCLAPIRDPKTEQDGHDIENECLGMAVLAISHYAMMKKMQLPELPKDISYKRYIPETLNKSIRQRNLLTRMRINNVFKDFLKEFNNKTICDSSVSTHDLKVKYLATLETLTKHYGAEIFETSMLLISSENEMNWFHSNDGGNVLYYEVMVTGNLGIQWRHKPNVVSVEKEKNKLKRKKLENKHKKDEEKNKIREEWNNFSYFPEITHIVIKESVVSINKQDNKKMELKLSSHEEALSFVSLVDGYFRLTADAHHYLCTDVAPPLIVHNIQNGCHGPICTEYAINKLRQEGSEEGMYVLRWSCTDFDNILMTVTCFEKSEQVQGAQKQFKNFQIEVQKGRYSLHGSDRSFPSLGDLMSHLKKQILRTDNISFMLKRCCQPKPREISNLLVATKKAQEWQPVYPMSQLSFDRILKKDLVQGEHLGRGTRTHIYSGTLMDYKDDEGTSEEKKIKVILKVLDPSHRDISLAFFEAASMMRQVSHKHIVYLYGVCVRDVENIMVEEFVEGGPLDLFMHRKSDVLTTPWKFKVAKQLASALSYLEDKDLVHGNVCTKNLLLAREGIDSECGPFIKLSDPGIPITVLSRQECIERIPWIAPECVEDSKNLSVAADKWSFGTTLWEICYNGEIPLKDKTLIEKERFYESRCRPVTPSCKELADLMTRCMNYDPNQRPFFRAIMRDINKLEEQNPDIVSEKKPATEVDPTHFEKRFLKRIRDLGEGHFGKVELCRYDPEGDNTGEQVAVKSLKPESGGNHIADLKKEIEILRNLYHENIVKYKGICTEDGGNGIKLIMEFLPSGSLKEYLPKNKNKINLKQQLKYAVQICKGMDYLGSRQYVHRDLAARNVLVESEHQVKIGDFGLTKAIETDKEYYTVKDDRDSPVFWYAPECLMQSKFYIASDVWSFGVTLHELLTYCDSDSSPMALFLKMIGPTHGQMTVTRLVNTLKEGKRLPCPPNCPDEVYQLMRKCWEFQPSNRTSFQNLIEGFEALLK

Compound | IC50 [1] [nM] | IC50 [2] [nM] | IC50 [3] [nM] | IC50 [4] [nM] | pIC50 [5] | Fold difference parent vs predicted acid metabolite [5]
COc1cc2c(cc1-n1nc(C(=O)NCCN3CC[C@@H](C(=O)OCC(C)(C)C#N)C3)c3cnc(-c4cnn5cccnc45)cc31)OCCN2 [Example 49, 2-cyano-2-methylpropyl (R)-1-(2-(1-(6-methoxy-3,4-dihydro-2H-benzo[b][1,4]oxazin-7-yl)-6-(pyrazolo[1,5-a]pyrimidin-3-yl)-1H-pyrazolo[4,3-c]pyridine-3-carboxamido)ethyl)pyrrolidine-3-carboxylate] | ≤ 5.01 | ≤ 5.01 | ≤ 5.01 | 5.01 to 50.1 | ≥ 8.30 | kkk (200>ratio≥100)
CCOC(=O)[C@@H]1C[C@@H]2CN(CCNC(=O)c3nn(-c4cc5c(cc4OC)NCCO5)c4cc(-c5cnn6cccnc56)ncc34)C[C@@H]2C1 [Example 32] | ≤ 5.01 | ≤ 5.01 | ≤ 5.01 | 5.01 to 50.1 | 7.30 to 8.30 | 
COc1cc2c(cc1-n1nc(C(=O)NCCN3CC[C@@H](C(=O)O[C@@H]4CCN(CCF)C4)C3)c3cnc(-c4cnn5cccnc45)cc31)OCCN2 [Example 55, (R)-1-(2-fluoroethyl)pyrrolidin-3-yl (R)-1-(2-(1-(6-methoxy-3,4-dihydro-2H-benzo[b][1,4]oxazin-7-yl)-6-(pyrazolo[1,5-a]pyrimidin-3-yl)-1H-pyrazolo[4,3-c]pyridine-3-carboxamido)ethyl)pyrrolidine-3-carboxylate] | ≤ 5.01 | ≤ 5.01 | ≤ 5.01 | 5.01 to 50.1 | 7.30 to 8.30 | kk (100>ratio≥10)
CCOC(=O)[C@H]1[C@@H]2CN(CCNC(=O)c3nn(-c4cc5c(cc4OC)NCCO5)c4cc(-c5cnn6cccnc56)ncc34)C[C@@H]21 [Example 33, ethyl (1R,5S,6r)-3-(2-(1-(6-methoxy-3,4-dihydro-2H-benzo[b][1,4]oxazin-7-yl)-6-(pyrazolo[1,5-a]pyrimidin-3-yl)-1H-pyrazolo[4,3-c]pyridine-3-carboxamido)ethyl)-3-azabicyclo[3.1.0]hexane-6-carboxylate] | ≤ 5.01 | ≤ 5.01 | ≤ 5.01 | 5.01 to 50.1 | 7.30 to 8.30 | 
CCOC(=O)C1CCN(CCNC(=O)c2nn(-c3cc4c(cc3OC)NCCC4)c3cc(-c4cnn5cccnc45)ncc23)CC1 [Example 38, ethyl 1-(2-(1-(7-methoxy-1,2,3,4-tetrahydroquinolin-6-yl)-6-(pyrazolo[1,5-a]pyrimidin-3-yl)-1H-pyrazolo[4,3-c]pyridine-3-carboxamido)ethyl)piperidine-4-carboxylate] | 5.01 to 50.1 | 5.01 to 50.1 | ≤ 5.01 | 5.01 to 50.1 | ≥ 8.30 | 
COc1cc2c(cc1-n1nc(C(=O)NCCN3CC[C@H](C(=O)O[C@@H]4CCN(C)C4)C3)c3cnc(-c4cnn5cccnc45)cc31)OCCN2 [Example 56, (R)-1-methylpyrrolidin-3-yl (S)-1-(2-(1-(6-methoxy-3,4-dihydro-2H-benzo[b][1,4]oxazin-7-yl)-6-(pyrazolo[1,5-a]pyrimidin-3-yl)-1H-pyrazolo[4,3-c]pyridine-3-carboxamido)ethyl)pyrrolidine-3-carboxylate] | ≤ 5.01 | ≤ 5.01 | ≤ 5.01 | 5.01 to 50.1 | 7.30 to 8.30 | kk (100>ratio≥10)

More lines, main results first:

IC50 [1] [nM] | IC50 [2] [nM] | IC50 [3] [nM] | IC50 [4] [nM] | Compound | pIC50 [5] | Fold difference parent vs predicted acid metabolite [5]
≤ 5.01 | ≤ 5.01 | ≤ 5.01 | 5.01 to 50.1 | CCSC(=O)C1CCN(CCNC(=O)c2nn(-c3cc4c(cc3OC)NCCO4)c3cc(-c4cnn5cccnc45)ncc23)CC1 [Example 59, S-ethyl 1-(2-(1-(6-methoxy-3,4-dihydro-2H-benzo[b][1,4]oxazin-7-yl)-6-(pyrazolo[1,5-a]pyrimidin-3-yl)-1H-pyrazolo[4,3-c]pyridine-3-carboxamido)ethyl)piperidine-4-carbothioate] | ≥ 8.30 | kkkk (ratio≥200)
≤ 5.01 | ≤ 5.01 | ≤ 5.01 | 5.01 to 50.1 | CCOC(=O)C1CCCN(CCNC(=O)c2nn(-c3cc4c(cc3OC)NCCO4)c3cc(-c4cnn5cccnc45)ncc23)C1 (centres unmarked) [Example 27, ethyl 1-(2-(1-(6-methoxy-3,4-dihydro-2H-benzo[b][1,4]oxazin-7-yl)-6-(pyrazolo[1,5-a]pyrimidin-3-yl)-1H-pyrazolo[4,3-c]pyridine-3-carboxamido)ethyl)piperidine-3-carboxylate] | 7.30 to 8.30 | 
≤ 5.01 | ≤ 5.01 | ≤ 5.01 | 5.01 to 50.1 | COCC(C)(C)OC(=O)C1CCN(CCNC(=O)c2nn(-c3cc4c(cc3OC)NCCO4)c3cc(-c4cnn5cccnc45)ncc23)CC1 [Example 5, 1-methoxy-2-methylpropan-2-yl 1-(2-(1-(6-methoxy-3,4-dihydro-2H-benzo[b][1,4]oxazin-7-yl)-6-(pyrazolo[1,5-a]pyrimidin-3-yl)-1H-pyrazolo[4,3-c]pyridine-3-carboxamido)ethyl)piperidine-4-carboxylate] | ≥ 8.30 | kkkk (ratio≥200)
≤ 5.01 | ≤ 5.01 | ≤ 5.01 | 5.01 to 50.1 | COc1cc2c(cc1-n1nc(C(=O)NCCN3CCC(C(=O)OCC4(C#N)CC4)CC3)c3cnc(-c4cnn5cccnc45)cc31)OCCN2 [Example 53, (1-cyanocyclopropyl)methyl 1-(2-(1-(6-methoxy-3,4-dihydro-2H-benzo[b][1,4]oxazin-7-yl)-6-(pyrazolo[1,5-a]pyrimidin-3-yl)-1H-pyrazolo[4,3-c]pyridine-3-carboxamido)ethyl)piperidine-4-carboxylate] | ≥ 8.30 | kkkk (ratio≥200)
